The results in this text go back to patent US6596497B1, “Screening of antiviral compounds targeted to the HIV-1 gp41 core structure” (New York Blood Center, Inc., priority 1999, dated 2003).

In brackets after ≈: the same amount, converted by molar mass.

Series [1] has as its system HIV-1IIIB. Nature of the series: HIV-1-mediated cytopathic effect (CPE), XTT. The class given is cell-based. Particulars: for Selective Index (S.I.) = CC50/IC50 for CPE / IC50 ± SD CPE / selectivity ratio at 6 days: MT-2 cells; for IC50 ± SD CPE: sixth day post infection; for IC50: Human immunodeficiency virus 1, MT2, read-out: IC50 ± SD CPE; for selectivity ratio at 6 days: human, read-out: Selective Index (S.I.) = CC50/IC50 for CPE. As to the method:
The inhibitory activity of the compounds was determined by a calorimetric method based on protection of cells against HIV-1-mediated CPE, as described in Jiang et al., (1991), J. Exp. Med., 174, 1557-1563. 1×10^4 MT-2 cells in 96-well plates were infected with diluted HIV-1IIIB in 200 μl RPMI 1640 medium containing 10% FBS in the presence of compounds at graded concentrations. After 1 hour, 24 hours and 4 days, half of the culture media were changed. On the sixth day post infection, an indicator, XTT tetrazolium dye (1 mg/ml; 50 μl/well; PolySciences, Inc., Warrington, Pa.), was added to the cells. After 4 hours, the soluble intracellular formazan was determined calorimetrically at 450 nm. The percent of inhibition of CPE and the IC50 values were calculated as described above.
(In general: Damage to the host cells serves as the signal in cytopathic effect assays.)

Series [2] concerns the target T1, preformed N36/C34 complex (Human immunodeficiency virus type 1 group M subtype B, UniProt P04578).
T1 construct: Peptides derived from the NHR and CHR regions of gp41, designated N- and C-peptides; made in house; host or cells: chemical synthesis (solid-phase FMOC)
Nature of the series: Control ELISA: NC-1 binding to preformed complex in the presence of compound. Set-up: species or system HIV-1. Particulars: different concentrations of compound. From the text:
The position might be taken that ADJ-J1, selected by a sandwich ELISA, may not block the complex formation by N- and C-peptides, but instead block NC-1 binding to the complex, either due to its association with MAb NC-1 or with the N36/C34 complex. The first possibility was excluded, since the antibody-coated wells of the plastic plates were extensively washed after addition of the mixture of N36, ADS-J1 and C34 and before. addition of MAb NC-1, excluding the presence of unbound ADS-J1, which could bind to MAb NC-1. To determine whether or not ADS-J1 binds to the surface of the N36/C34 complex and blocks NC-1 binding, a control experiment was conducted in which the complex In was preformed by mixing N36 and C34 at equimolar concentrations and captured to the wells of plastic plates coated with rabbit antibody directed against N36/C34 complex. Then, the binding of MAb NC-1 to the preformed complex in the presence of ADS-J1 at different concentrations was determined.
A general note: An ELISA detects its analyte on a solid surface through an enzyme-linked reagent.

Series [3] deals with T2, N-36/C-34 complex (HIV-1 gp41 core) (Human immunodeficiency virus type 1 group M subtype B, UniProt P04578).
T2 construct: Peptides derived from the NHR and CHR regions of gp41, designated N- and C-peptides; made in house; host or cells: chemical synthesis (solid-phase FMOC)
T2 sequence (P04578 546-581, one chain of several): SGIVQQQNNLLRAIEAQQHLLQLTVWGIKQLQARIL
Nature of the series: biochemical. The class given is binding. The note with it: for IC50 ± SD NC-1 binding: N-36 2 μM preincubated with compound, then C-34 2 μM; for Inhibitory activity on complex formation by N-36 and C-34 (in words): no concentration stated. As to the method:
For detection of peptide complexes, a direct and a sandwich ELISA were used. In the direct ELISA, the N- and C-peptides were mixed at equimolar concentration in PBS and diluted in coating buffer. Then, the peptide complexes were directly coated onto the wells of microplate. In the sandwich ELISA, the plate was coated with IgG (10 μg/ml) purified from rabbit antisera directed against N36(L6)C34, followed by the addition of the peptide complexes formed by mixing N- and C-peptides in PBS in equimolar concentrations. To screen for antiviral agents, compounds were pre-incubated with N-peptides at 37° C. for 30 minutes before mixing with the C-peptides. The binding of the peptide complexes to the antibodies was then detected as described above.
The percentage of inhibition by the compounds of the binding of NC-1 to the peptide complexes was calculated as described in Jiang, S., K. Lin, and A. R. Neurath, 1991, “Enhancement of human immunodeficiency virus type-1 (HIV-1) infection by antisera to peptides from the envelope glycoproteins gp120/gp41”, J. Exp. Med., 174, 1557-1563.
A sandwich ELISA was established to screen for compounds that interfere with the formation of the N-36/C-34 complex. N-36 (2 μM) was preincubated with compounds at graded concentrations at 37° C. for 30 minutes, followed by the addition of C-34 (2 μM). After incubation at 37° C. for 30 minutes, the mixture was added to wells of a 96-well polystyrene plate (Immulon I, Dynatech Laboratories, Inc., Chantilly, Va.) which were precoated with IgG (10 μg/ml) purified from rabbit antisera directed against N36(L6)C34. […] Absorbance at 450 nm (A450) was read using an ELISA reader (Dynatech Laboratories, Inc., Chantilly, Va.). The percentage of inhibition by the compounds of the binding of NC-1 to the peptide complexes was calculated as described in Jiang S., K. Lin, and A. R. Neurath, 1991, “Enhancement of human immunodeficiency virus type-1 (HIV-1) infection by antisera to peptides from the envelope glycoproteins gp120/gp41”, J. Exp. Med., 174, 1557-1563. The concentration for 50% inhibition (IC50) was calculated using a computer program, designated Calcusyn (Chou, T.-C., 1991, “The median-effect principle and the combination index for quantitation of synergism and antagonism. In Synergism and Antagonism in Chemotherapy”, T.-C. Chou and D. C. Rideout, editors, Academic Press, San Diego, 61-102).

Series [4] has as its system H9/HIV-1IIIB cells and MT-2 cells. Nature of the series: cells. In kind it is cell-based. Particulars: for IC50 ± SD Cell fusion: 37° C., 2 hours; for Inhibitory activity on HIV-1-mediated cell fusion (in words): no concentration stated; for IC50: Human immunodeficiency virus 1, MT2, 2 h, read-out: IC50 ± SD Cell fusion. As to the method: A dye transfer assay was used for detection of HIV-1-mediated cell fusion as described in Jiang et al., Nature, 365, 113 (1993). H9/HIV-1IIIB cells were labeled with a fluorescent reagent, 2′,7′-bis-(2-carboxyethyl)-5-and-6-carboxyfluorescein acetoxyethyl ester (BCECF-AM), (Molecular Probes, Inc., Eugene, Oreg.) and incubated with MT-2 cells (ratio=1:10) in a 96-well plate at 37° C. for 2 hours in the presence or absence of peptides or compounds tested. The fused and unfused BCECF-labeled HIV-1 infected cells were counted under an inverted fluorescence microscope (Zeiss, Germany) with an eyepiece micrometer discs. The percentage of inhibition of cell fusion was calculated as described in Jiang et al., 1993, Nature, 365, 113.
A dye transfer assay was used for detection of HIV-1 mediated cell fusion as described in Jiang, S., K. Lin, N. Strick, and A. R. Neurath, 1993, Inhibition of HIV-1 infection by a fusion domain binding peptide from HIV-1 envelope glycoprotein gp41, Biochem. Biophys. Res. Commun., 195, 533-538.
H9/HIV-1IIIB cells were labeled with a fluorescent reagent, 2′,7′-bis-(2-carboxyethyl)-5-and-6-carboxyfluorescein acetoxyethyl ester (BCECF-AM) (Molecular Probes, Inc., Eugene, Oreg.) and then incubated with MT-2 cells (ratio=1:10) in 96-well plates at 37° C. for 2 hours in the presence or absence of the compounds tested. The fused and unfused BCECF-labeled HIV-1 infected cells were counted under an inverted fluorescence microscope (Zeiss, Germany) with an eyepiece micrometer disc. The percentage of inhibition of cell fusion and the IC50 values were calculated as described in Jiang et al., (1993), Biochem. Biophys. Res. Commun., 195, 533-538.

Series [5] relates to MT-2 cells. Nature of the series: In vitro cytotoxicity, XTT. In kind it is cell-based. Here is the method:
(§1) The in vitro cytotoxicity for MT-2 cells of the compounds was determined in 96-well plates using the XTT dye to measure cell viability in the absence of virus. Ten μl of 5% TRITON X-100 were added to the wells corresponding to positive controls (“P”) and 10 μl medium was added to wells corresponding to negative controls (“N”). The percent cytotoxicity was calculated using the following formula: % cytotoxicity=[(E−N)/(P−N)]×100%, wherein “E” represents experimental data in the presence of compounds. The concentration corresponding to 50% cytotoxicity (CC50) for MT-2 cells was calculated using the Calcusyn computer program. The selectivity index (S.I.=CC50/IC50) for each compound was calculated.
A general note: Formazan colour is commonly taken as a measure of viable cells.

Series [6] in a line: In vitro cytotoxicity, XTT. The note with it: human; 50% cytotoxic concentration, MT-2 cells, no virus; read-out: CC50 ± SD. The class given is cell-based. Here is the method: as §1

T1 sequence (P04578 546-581, one chain of several): as above

Take “7-[6-phenylamino-4-[4-[(3,5-disulfo-8-hydroxynaphthyl)azo]-2-methoxy-5-methylphenylamino]-1,3,5-triazine-2-yl]-4-hydroxy-3-[(2-methoxy-5-sulfophenyl)azo]-2-naphthalene sulfonic acid [ADS-J1]”: in series [1], the “Selective Index (S.I.) = CC50/IC50 for CPE” value (“Selective Index” for short) was found to be 35.24 and the “IC50 ± SD CPE” value came out at 8.29 ± 1.13 µg/mL. For the same molecule, in series [1] (no concentration stated), the “Inhibitory activity on HIV-1-mediated CPE (in words)” value is “promising inhibitory activity”. The “Blocking of NC-1 binding to the preformed N36/C34 complex” value in series [2] is given as “unable to block”. In series [3], the “IC50 ± SD NC-1 binding” value is 0.73 ± 0.08 µg/mL; the “Inhibitory activity on complex formation by N-36 and C-34 (in words)” value was “promising inhibitory activity”. The “Inhibition of NC-1 detectable complex formation by N-36 and C-34 (in words)” value in series [3] (compounds at 10 μg/ml, FIG. 13) is “completely inhibited”. Also, in series [3] (listed as ADJ-1), the “Inhibitory activity on complex formation by N-36 and C-34 (in words)” value was “most potent inhibitory activity”. In addition, in series [4], the “IC50 ± SD Cell fusion” value is 4.95 ± 1.31 µg/mL and the “Inhibitory activity on HIV-1-mediated cell fusion (in words)” value is listed as “promising inhibitory activity”. Further, in series [4] (compounds at 10 μg/ml, FIG. 13), the “Inhibition of HIV-1-mediated cell fusion (in words)” value was “completely inhibited”. Further, the “Inhibitory activity on HIV-1-mediated cell fusion (in words)” value in series [4] (listed as ADJ-1) was “most potent inhibitory activity”. In addition, the “CC50 ± SD” value in series [5] came out at 292.16 ± 2.27 µg/mL.
For `Cc1ccc(C(=O)Nc2cccc(C(=O)N/N=C/c3ccc(Br)cc3)c2)cc1` [ADS-J3], in series [1], the “Selective Index” value is reported as “≦1.00” and the “IC50 ± SD CPE” value is more than 100 µg/mL. Besides, the “IC50 ± SD NC-1 binding” value in series [3] was more than 100 µg/mL. Besides, the “IC50 ± SD Cell fusion” value in series [4] was more than 100 µg/mL. Moreover, the “CC50 ± SD” value in series [5] amounted to 24.91 ± 2.62 µg/mL (≈ 57.1 µM).
Turning to `COc1ccc2c(c1)CCC/C2=N\OC(=O)Nc1ccccc1-c1ccccc1` [ADS-J8], in series [1], the “Selective Index” value is reported as “≦1.00” and the “IC50 ± SD CPE” value is more than 100 µg/mL. Also, the “IC50 ± SD NC-1 binding” value in series [3] is more than 100 µg/mL. For the same molecule, the “IC50 ± SD Cell fusion” value in series [4] was more than 100 µg/mL. In addition, in series [5], the “CC50 ± SD” value was 46.83 ± 4.93 µg/mL (≈ 121 µM).
Broadly, the IC50 is the point on the concentration scale where inhibition reaches its midpoint. The term CC50 denotes the concentration at which the toxic effect on the cells reaches its halfway point. `CC(Nc1ccccc1Cl)c1nc2ccccc2c(=O)n1Cc1ccccc1` (centres unmarked) [ADS-J14]: the IC50 in series [1] is more than 100 µg/mL; in series [3] it was more than 256 µM; in series [4] it was more than 100 µg/mL. For the same molecule, the selectivity ratio at 6 days in series [1] is not above 1. For the same molecule, the CC50 in series [6] is 86.8 ± 5.79 µg/mL (≈ 223 µM).
As to `COC(=O)c1cc(C(=O)OC)cc(N(C(=O)Nc2ccc(Cl)c(Cl)c2)C(C)c2nc3ccccc3c(=O)n2Cc2ccccc2)c1` (centres unmarked) [ADS-J15], the IC50 was more than 100 µg/mL in series [1], more than 152 µM in series [3] and more than 100 µg/mL in series [4]. Also, the selectivity ratio at 6 days in series [1] was not above 1. Also, in series [6], the CC50 is 20.9 ± 0.67 µg/mL (≈ 31.8 µM).
Take `O=P(CCP(c1ccccc1)c1ccccc1)(c1ccccc1)c1ccccc1` [ADS-J16]: the IC50 was more than 100 µg/mL in series [1], more than 241 µM in series [3] and 52.3 ± 2.85 µg/mL (≈ 126 µM) in series [4]. Moreover, the selectivity ratio at 6 days in series [1] was not above 1. Further, the CC50 in series [6] came out at 28.9 ± 5.97 µg/mL (≈ 69.7 µM).
